Assay results published in ChEMBL document CHEMBL4364349, “In vitro screening for compounds from Hypericum longistylum with anti-pulmonary fibrosis activity” (Bioorg Med Chem Lett, 2019).

Experiments:
Type in all cases: cell-based
[1] = Cytotoxicity against mouse Mlg cells assessed as effect on cell viability up to 80 uM after 24 to 48 hrs by MTT assay
[2] = biological target: Transforming growth factor beta-1 proprotein/Mothers against decapentaplegic homolog 3 (Mus musculus) (UniProt P04202+Q8BUN5); experiment: Inhibition of TGF beta1/Smad3 signaling in mouse NIH/3T3 cells harboring CAGA promoter at 10 uM incubated for 18 hrs in presence of TGF-beta1 by luciferase reporter gene assay relative to control
Sequence of Transforming growth factor beta-1 proprotein/Mothers against decapentaplegic homolog 3 (Mus musculus) (P04202 279-390 limits assumed): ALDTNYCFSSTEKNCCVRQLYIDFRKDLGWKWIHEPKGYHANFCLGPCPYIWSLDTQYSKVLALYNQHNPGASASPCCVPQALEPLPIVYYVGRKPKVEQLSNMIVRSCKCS
Sequence of Transforming growth factor beta-1 proprotein/Mothers against decapentaplegic homolog 3 (Mus musculus) (Q8BUN5 2-425 partner limits assumed): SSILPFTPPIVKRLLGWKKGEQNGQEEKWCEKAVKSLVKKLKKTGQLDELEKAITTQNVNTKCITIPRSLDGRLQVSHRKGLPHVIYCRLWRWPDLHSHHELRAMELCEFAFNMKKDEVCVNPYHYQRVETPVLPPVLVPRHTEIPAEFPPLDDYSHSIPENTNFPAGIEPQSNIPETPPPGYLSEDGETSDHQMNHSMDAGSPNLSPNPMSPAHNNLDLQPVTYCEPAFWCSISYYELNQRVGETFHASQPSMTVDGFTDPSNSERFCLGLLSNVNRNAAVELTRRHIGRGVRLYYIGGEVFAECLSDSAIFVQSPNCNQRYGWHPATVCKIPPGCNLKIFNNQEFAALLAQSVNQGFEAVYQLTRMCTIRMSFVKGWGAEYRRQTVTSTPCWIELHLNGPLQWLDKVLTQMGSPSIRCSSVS

[3] = biological target: Transforming growth factor beta-1 proprotein/Mothers against decapentaplegic homolog 3 (Mus musculus, UniProt P04202+Q8BUN5); experiment: Inhibition of TGF beta1/Smad3 signaling in mouse NIH/3T3 cells harboring CAGA promoter incubated for 18 hrs in presence of TGF-beta1 by luciferase reporter gene assay
Sequence of Transforming growth factor beta-1 proprotein/Mothers against decapentaplegic homolog 3 (P04202 279-390 limits assumed): as the sequence (P04202 279-390 limits assumed) above
Sequence of Transforming growth factor beta-1 proprotein/Mothers against decapentaplegic homolog 3 (Q8BUN5 2-425 limits assumed): as the sequence (Q8BUN5 2-425 partner limits assumed) above

inhibition [2] [%]	IC50 [3] [µM]	Structure (SMILES)	Activity [1]
		CC(C)[C@@H]1CC[C@@]2(C)C(=O)CCC(C=O)=C[C@@H]12	Non-Toxic
		CC(C)[C@H]1CC[C@@]2(C)[C@@H]1[C@@H]1O[C@]1(CO)CC[C@@H]2O [SANICULAMOID B]	Non-Toxic
93.1	0.38	COc1ccc(C2CC(=O)c3c(O)cc(O)c(C)c3O2)cc1 (stereo not given)	Non-Toxic
		C=C[C@](C)(O)CC[C@H]1C(=C)C[C@H](O)[C@H]2C(C)(C)CCC[C@]12C	Non-Toxic
		CC(C)[C@@H]1CC[C@@]2(C)[C@H](O)CCC(C=O)=C[C@H]12	Non-Toxic
	0.0705	Cc1cccc(-c2[nH]c(C(C)(C)C)nc2-c2ccc3nccnc3c2)n1	Toxic
		C=C1CC[C@@H](O)[C@]2(C)CC[C@H](C(C)C)[C@@H](O)[C@H]12	Non-Toxic
		CC(C)[C@@H]1CC[C@@]2(C)[C@H](O)CC[C@@]3(O)CO[C@@H]1[C@@H]32	Non-Toxic
		CC(=O)[C@@H]1CC[C@H]2[C@H]1[C@@H](C(C)C)CC[C@]2(C)O	Non-Toxic
		C=C1CC[C@@H](O)[C@]2(C)CC[C@@H](C(C)C)[C@H](O)[C@@H]12	Non-Toxic
67.9	3.67	CC1(C)C[C@H]2[C@H]1CC[C@@]1(C)C[C@]2(O)CC[C@@H]1O	Non-Toxic
	1.43	Cc1ccc(=O)n(-c2ccccc2)c1 [PIRFENIDONE]	
		C=C1CCC(=O)[C@]2(C)CC[C@@H](C(C)C)[C@@H]2C1O (stereo not given in full)	Non-Toxic
		CO[C@@]12CC[C@@H](O)[C@@](C)(CC[C@@H]3[C@@H]1CC3(C)C)C2	Non-Toxic
		CC(C)[C@@H]1CC[C@@]2(C)[C@H](O)CCC(CO)=C[C@@H]12	Non-Toxic
